Laboratory results as given in publication PMC8481833, “Kinetic Characterization and Inhibitor Screening of Pyruvate Kinase I From Babesia microti” (Frontiers in Microbiology, 2021).
Several values for one entry are separate records, joined by “and”; a condition that tells them apart may be missing. Equal values may be shown once. Entries after “also recorded” stand apart in the source; their conditions may differ. Read-outs that look alike come from different tables or passages of the source.

Experiments:
[1] = molecular target: T1, rBmPYKI (Babesia microti, UniProt A0A1N6LXR4); assay: biochemical; assay type: biochemical
[2] = molecular target: rBmLDH (Babesia microti, UniProt I7J7V6); assay: biochemical; assay type: biochemical
rBmLDH, sequence (I7J7V6 1-332): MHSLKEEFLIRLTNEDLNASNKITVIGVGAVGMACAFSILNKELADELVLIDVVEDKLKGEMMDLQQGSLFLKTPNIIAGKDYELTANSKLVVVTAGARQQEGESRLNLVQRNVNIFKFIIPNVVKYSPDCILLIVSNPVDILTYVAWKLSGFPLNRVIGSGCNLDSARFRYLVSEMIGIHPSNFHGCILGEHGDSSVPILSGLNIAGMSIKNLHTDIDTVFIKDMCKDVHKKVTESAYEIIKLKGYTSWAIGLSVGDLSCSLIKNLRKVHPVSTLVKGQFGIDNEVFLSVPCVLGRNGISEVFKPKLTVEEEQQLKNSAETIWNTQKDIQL

[3] = molecular target: T1, rBmPYKI; assay: Enzyme kinetics of rBmPYKI on substrates PEP and ADP; assay type: biochemical; conditions: substrate of rBmPYKI
Protocol: (§1) To determine the enzymatic activity of purified rBmPYKI, the GST tag was removed from the recombinant protein; and the indirect coupled lactate dehydrogenase (LDH) assay was applied. Recombinant B. microti LDH (rBmLDH) protein, the only one isoform in B. microti, was expressed and purified according to previously published protocol ([Yu et al., 2019]). The standard enzyme kinetic assay was conducted by monitoring the decrease in NADH at a wavelength of 340 nm using a microplate reader (BioTek, Winooski, VT, United States). One unit of the PYK activity here was defined as 1 μmol of NADH oxidized per minute at 37°C. The samples were continuously measured at 2, 7, 12, 17, 22, and 27 min. To determine the effects of pH and the concentration of Mg^2+ and K^+ on rBmPYKI, the assay was performed in the pH range of 5.5–8.5, and the Mg^2+ and K^+ concentrations ranged from 0 to 200 mM (0, 25, 50, 75, 100, 125, 150, 175, and 200 mM). The standard assay mixture (200 μl) contained 50 mM of Tris-HCl (pH 7.0), 50 mM of MgCl2, 20 mM of KCl, 0.5 mM of NADH (MilliporeSigma), 3 mM of PEP (MilliporeSigma), 1 mM of ADP (MilliporeSigma), 100 ng of rBmLDH (20 U), and 100 ng of rBmPYKI. The initial velocity for the rate of […] of NADH in the first 5 min was calculated, and the relative percentage activity was determined. The kinetic parameters for PEP (at 0.5, 1, 2, 3, 4, and 5 mM) under saturating ADP conditions (3 mM) were determined. The Michaelis–Menten constant (Km) for ADP under 7 mM of PEP (saturation) was determined at 0.05, 0.1, 0.2, 0.4, 0.6, 0.8, 1.0, 1.5, and 2.0 mM.

[4] = test system: corresponding enzymes from mammals; conditions: cited from earlier work
[5] = test system: PYK from P. falciparum; conditions: cited from earlier work
[6] = test system: PYK from T. gondii; conditions: cited from earlier work
[7] = in vitro; conditions: African green monkey
[8] = test system: B. microti; assay: Growth inhibition of Babesia microti by in vitro culture; assay type: cell-based; conditions: for IC50: read-out: IC50 B. microti
Protocol: Infected mouse blood was collected and centrifuged at 845 × g for 5 min, and the infected mouse RBCs was isolated. The RBCs infected by B. microti were diluted to 5% with uninfected mouse and human RBCs (10:1). […] Drug-free wells were set up as blank control. All treatments were carried out in triplicate. After 72 h of incubation, parasitemia was examined by Giemsa staining under a microscope.

[9] = in vitro; conditions: human
[10] = test system: B. microti; assay: Rescue assay of tannic acid (pyruvate or ATP added); assay type: cell-based, Babesia microti; conditions: for effect of addition of ATP on the inhibitory effect: 2 mM ATP; for effect of addition of ATP on the inhibitory effect / effect of addition of pyruvate on the inhibitory effect / inhibition of B. microti as compared with DMSO: tannic acid 1 μM, DA about 10 μM; for effect of addition of pyruvate on the inhibitory effect: 2 mM pyruvic acid
Protocol: MilliporeSigma) was used as the positive control, and DMSO was used as the negative control because tannic acid was diluted in DMSO. The group only containing medium without any treatment was used as the blank control. Each test was performed in triplicate.

[11] = test system: trypanosomes; design: method as in Worku et al., 2015; conditions: net ATP depletion by inhibiting PYK; ref Worku et al., 2015; cited from earlier work
[12] = test system: HFF cells
[13] = test system: Vero cells
[14] = Cytotoxicity assay, Cell Counting Kit-8, HFF cells; conditions: human
[15] = Cytotoxicity assay, Cell Counting Kit-8, Vero cells; conditions: African green monkey
[16] = substrate: C=C(OP(=O)(O)O)C(=O)O; assay: Enzyme kinetics of rBmPYKI on substrates PEP and ADP; assay type: biochemical, Babesia microti; conditions: other: substrate of rBmPYKI; other substrate saturating; pH 7.0; 37.0 °C
Protocol: as §1, with “The standard assay mixture (200 μl) contained 50 mM of Tris-HCl (pH 7.0), 50 mM of MgCl2, 20 mM of KCl, 0.5 mM of NADH (MilliporeSigma), 3 mM of PEP (MilliporeSigma), 1 mM of ADP (MilliporeSigma), 100 ng of rBmLDH (20 U), and 100 ng of rBmPYKI.” left out, “The Michaelis–Menten constant (Km) for ADP under 7 mM of PEP (saturation) was determined at 0.05, 0.1, 0.2, 0.4, 0.6, 0.8, 1.0, 1.5, and 2.0 mM.” left out

[17] = substrate: Nc1ncnc2c1ncn2[C@@H]1O[C@H](COP(=O)(O)OP(=O)(O)O)[C@@H](O)[C@H]1O; assay: Indirect coupled LDH assay following NADH decrease at 340 nm, pH 7.0, 37 °C, 50 mM MgCl2, 20 mM KCl, ADP varied 0.05-2.0 mM at saturating 7 mM PEP, no FBP.; assay type: biochemical
Protocol: To determine the enzymatic activity of purified rBmPYKI, the GST tag was removed from the recombinant protein; and the indirect coupled lactate dehydrogenase (LDH) assay was applied. Recombinant B. microti LDH (rBmLDH) protein, the only one isoform in B. microti, was expressed and purified according to previously published protocol ([Yu et al., 2019]). The standard enzyme kinetic assay was conducted by monitoring the decrease in NADH at a wavelength of 340 nm using a microplate reader (BioTek, Winooski, VT, United States). One unit of the PYK activity here was defined as 1 μmol of NADH oxidized per minute at 37°C. The samples were continuously measured at 2, 7, 12, 17, 22, and 27 min. […] The initial velocity for the rate of […] of NADH in the first 5 min was calculated, and the relative percentage activity was determined. The kinetic parameters for PEP (at 0.5, 1, 2, 3, 4, and 5 mM) under saturating ADP conditions (3 mM) were determined. […]
Statistical analysis was conducted with GraphPad Prism 7.0 (GraphPad Software, La Jolla, CA, United States). Statistical significance was evaluated by one-way ANOVA; and all data were presented as the mean ± standard deviation (SD) from at least three independent experiments performed in duplicate. […]

[18] = in vitro culture, 72 h, parasitemia by Giemsa staining

O=c1cc(-c2ccccc2)oc2ccc(O)cc12 [6-Hydroxyflavone]
IC50 ([1]; read-out: IC50 rBmPYKI): 390 µM
effect on rBmLDH / LDH reaction activity [2]: obvious inhibitory effect
IC50 ([2]; read-out: IC50 rBmLDH): 828 µM

Nc1ncnc2c1ncn2[C@@H]1O[C@H](COP(=O)(O)OP(=O)(O)O)[C@@H](O)[C@H]1O [ADP]
Kcat [3]: 21.8 S^–1
KcatKM [3]: 5.62 × 10^4 S^–1⋅M^–1
Vmax [3]: 242 ± 16 U/mg
Km ([3]; other substrate saturating): 388 ± 87 µM
Km [4]: 350 µM
Km [5]: 126 µM
Km [6]: 180 µM

O=c1cc(-c2ccc(O)cc2)oc2cc(O)cc(O)c12 [Apigenin]
CC50 [7]: 58.6 ± 2.97 µM
IC50 ([8]; Babesia microti, in vitro culture, 72 h, parasitemia by Giemsa staining): 2.1 ± 1.16 µM
IC50 [1]: 70 µM
effect on the activity of rBmPYKI [1]: significantly inhibit
CC50 [9]: 33 ± 1.18 µM
effect on rBmLDH / LDH reaction activity [2]: did not affect
IC50 ([2]; read-out: IC50 rBmLDH): > 1950 µM

CC(=O)NCC(=O)O.CC(=O)NCC(=O)O.N=C(N)c1ccc(N=NNc2ccc(C(=N)N)cc2)cc1 [DA, diminazene aceturate]
effect of addition of ATP on the inhibitory effect [10]: did not affect
effect of addition of pyruvate on the inhibitory effect [10]: no effect
inhibition of B. microti as compared with DMSO [10]: significantly inhibit

CCOC(=O)C(C)=O [Ethyl pyruvate]
time of exposure to kill trypanosomes [11]: ≤ 3 h

O=c1cc(-c2ccccc2)oc2ccccc12 [Flavone]
effect on the activity of rBmPYKI [1]: no effect
IC50 ([1]; read-out: IC50 rBmPYKI): > 1950 µM
effect on rBmLDH / LDH reaction activity [2]: no effect
IC50 ([2]; read-out: IC50 rBmLDH): > 1950 µM

CC(C)=CCC1=C(O)C(=O)c2ccccc2C1=O [Lapachol]
effect on the activity of rBmPYKI [1]: no effect
IC50 [2]: 721 µM
effect on rBmLDH / LDH reaction activity [2]: no effect

C=C(OP(=O)(O)O)C(=O)O [PEP, phosphoenolpyruvate]
Km [5]: 190 µM
Km [6]: 750 µM

CC1=C(CSC(=S)N2CCCCC2)C(=O)c2ccccc2C1=O [PKM2 inhibitor]
inhibition rate of B. microti growth ([8]; 50 μM, 72 h): 80%
IC50 [8, 18]: 1.15 ± 0.11 µM
effect on the activity of rBmPYKI [1]: significantly inhibit
IC50 ([1]; read-out: IC50 rBmPYKI): 23 µM
CC50 [12]: 18.6 ± 2.46 µM
CC50 [13]: 39.2 ± 5.05 µM
effect on rBmLDH / LDH reaction activity [2]: did not affect
IC50 ([2]; read-out: IC50 rBmLDH): > 1950 µM

CCc1ccc(CCOc2ccc(CC3SC(=O)NC3=O)cc2)nc1 (centres unmarked) [Pioglitazone]
effect on the growth of B. microti ([8]; in vitro culture, 72 h): no significant effect
IC50 [1]: 44 µM
effect on the activity of rBmPYKI [1]: significantly inhibit
effect on rBmLDH / LDH reaction activity [2]: did not affect
IC50 ([2]; read-out: IC50 rBmLDH): > 1950 µM

OC[C@H]1O[C@@H](Oc2cc(O)cc(/C=C/c3ccc(O)cc3)c2)[C@H](O)[C@@H](O)[C@@H]1O [Polydatin]
IC50 [1]: 92.9 µM
IC50 [2]: 142 µM
effect on rBmLDH / LDH reaction activity [2]: obvious inhibitory effect

CN(CCOc1ccc(CC2SC(=O)NC2=O)cc1)c1ccccn1 (centres unmarked) [Rosiglitazone]
effect on the activity of rBmPYKI [1]: significantly inhibit; also recorded: significantly reduce
IC50 ([1]; read-out: IC50 rBmPYKI): 6.89 µM

CC(C)=CC[C@@H](O)C1=CC(=O)c2c(O)ccc(O)c2C1=O [Shikonin]
hemolysis of RBCs ([8]; 100 μM, infected RBC culture): Slight hemolysis
IC50 ([8]; Babesia microti, 72 h): 1.73 ± 0.69 µM
inhibition at 20 µM ([8]; Babesia microti, 72 h, read-out: inhibition rate of B. microti growth): 80%
IC50 [1]: 187 µM
effect on the activity of rBmPYKI [1]: significantly inhibit
CC50 [14]: 0.63 ± 0.4 µM
CC50 [15]: 2.37 ± 0.26 µM
effect on rBmLDH / LDH reaction activity [2]: did not affect
IC50 ([2]; read-out: IC50 rBmLDH): > 1950 µM

Cc1ccc(C(=O)Nc2ccc(S(=O)(=O)O)c3cc(S(=O)(=O)O)cc(S(=O)(=O)O)c23)cc1NC(=O)c1cccc(NC(=O)Nc2cccc(C(=O)Nc3cc(C(=O)Nc4ccc(S(=O)(=O)O)c5cc(S(=O)(=O)O)cc(S(=O)(=O)O)c45)ccc3C)c2)c1 [Suramin]
IC50 ([1]; read-out: IC50 rBmPYKI): 125 µM
effect on rBmLDH / LDH reaction activity [2]: obvious inhibitory effect
IC50 ([2]; read-out: IC50 rBmLDH): 44.2 µM

COc1c(O)cc(O)c2c(=O)cc(-c3ccccc3)oc12 [Wogonin]
IC50 [1]: 185 µM
IC50 [2]: 143 µM
effect on rBmLDH / LDH reaction activity [2]: obvious inhibitory effect

Tannic acid
inhibition rate of B. microti growth ([8]; 20 μM, 72 h): 80%
IC50 [8, 18]: 0.77 µM
effect on the activity of rBmPYKI [1]: significantly inhibit; also recorded: significantly reduce
inhibition of the activity of rBmPYKI ([1]; 3 µM): more than 90%
IC50 ([1]; read-out: IC50 rBmPYKI): 0.5 µM and 0.49 µM
CC50 [12]: 36.5 ± 4.75 µM
CC50 [13]: 53 ± 2.8 µM
IC50 ([2]; read-out: IC50 rBmLDH): 23.6 µM
inhibition of B. microti growth ([10]; 1 μM, concentration used in rescue assay): 70%
effect of addition of ATP on the inhibitory effect [10]: did not affect
effect of addition of pyruvate on the inhibitory effect [10]: rescue
microscopy observation of inhibited parasites ([10]; Giemsa staining): mostly located outside RBCs
inhibition of B. microti as compared with DMSO [10]: significantly inhibit

B1: rBmPYKI (Babesia microti strain RI) (protein)
chain: MNRIIKAVPDDEISKKLTKIVCTIGPASANVDKIVAMIKSGMNVCRFNFSHGTHETHYETMKLVKEAMKQVPGKHIALMIDTKGPEIRTGKLAQGDYIQLTAGQTVKITSDQSVLCTNEIISITYEHLTSSVKPGNIILMADGTISFKVISVEKDYVVGEVMNSARLSNRKNVNLPGVKVNIPVIGEKDKKDILEFGVAHNMDYIAVSFVQSANDILSVKKLIGHNSNLKIISKIENVEGLINFDEILEVSDGIMIARGDLGMEIPSEKVFIAQKMMIYKCNIAGKPVITATQMLESMIVNPRPTRAEVTDVANAVLDGSDCVMLSGETANGAFSVECVRLMSHICLEAESCTDHMSVYLNLLKAIPTPVTTQEAIVRCSVGAIYSVNASCIIALTETGKTASLLAKYKPNQLIIAICNNENVAAGLALNRGVVPIMVDSFIDSDANINHAIEFAKKNNIVVEGSTVLAVHGMVSCAPGNTDMLKILNV
notes: recombinant, pGEX-6p-1, E. coli BL21, GST tag removed by 3C protease, 54 kDa
Km [16]: 655 ± 117 µM
Vmax [16]: 250 µmol/min/mg
Km [17]: 388 ± 87 µM
Vmax [17]: 242 µmol/min/mg
